Data as given in US4443436A, “C-20-Modified macrolide derivatives of the macrolide antibiotics tylosin, desmycosin, macrocin, and lactenocin” (Eli Lilly and Company, priority 1982, dated 1984).
In brackets after ≈: the same amount, converted by molar mass. Where two headings read alike, the source gives them in different places.

Tests used:
[1] = system: Streptococcus pyogenes C203; assay: In vivo protection of mice experimentally infected with S. pyogenes C203; details: mice, doses given 1 and 4 hours post-infection
Method: The C-20 modified derivatives of this invention have shown in vivo antimicrobial activity against experimentally-induced infections in laboratory animals. When two doses of test compound were administered to mice experimentally infected with S. pyogenes C203, the activity observed was measured as an ED50 value [effective dose in mg/kg to protect 50% of the test animals: see Warren Wick, et al., J. Bacteriol. 81, 233-235 (1961)].

[2] = system: Staphylococcus epidermidis EPI1; assay: MIC, standard agar-dilution assay, Staphylococcus epidermidis EPI1; assay type: cell-based
[3] = system: Haemophilus influenzae R252; assay: MIC, standard agar-dilution assay, Haemophilus influenzae R252; assay type: cell-based; details: Haemophilus influenzae R252, ampicillin-resistant strain
[4] = system: Staphylococcus aureus X1.1; assay: MIC, standard agar-dilution assay, Staphylococcus aureus X1.1; assay type: cell-based
[5] = system: Staphylococcus epidermidis EPI2; assay: MIC, standard agar-dilution assay, Staphylococcus epidermidis EPI2; assay type: cell-based
[6] = system: Pasteurella multocida 60A; assay: MIC, broth-dilution microtiter test, Pasteurella multocida 60A; assay type: cell-based; details: Pasteurella multocida 60A, avian isolate, broth-dilution microtiter
From the text: (§1) The MIC's in Table X were obtained using conventional broth-dilution microtiter tests.

[7] = system: Pasteurella hemolytica 22C; assay: MIC, broth-dilution microtiter test, Pasteurella hemolytica 22C; assay type: cell-based; details: Pasteurella hemolytica 22C, broth-dilution microtiter
From the text: as §1

[8] = system: Streptococcus Group D X66; assay: MIC, standard agar-dilution assay, Streptococcus Group D X66; assay type: cell-based; details: Streptococcus Group D X66, agar dilution
[9] = system: Staphylococcus aureus; assay: MIC, broth-dilution microtiter test, Staphylococcus aureus; assay type: cell-based
From the text: as §1

[10] = system: Staphylococcus aureus S13E; assay: MIC, standard agar-dilution assay, Staphylococcus aureus S13E; assay type: cell-based
[11] = system: Mycoplasma gallisepticum; assay: MIC, broth-dilution microtiter test, Mycoplasma gallisepticum; assay type: cell-based
From the text: as §1

[12] = system: Haemophilus influenzae Holt; assay: MIC, standard agar-dilution assay, Haemophilus influenzae Holt; assay type: cell-based; details: Haemophilus influenzae Holt, ampicillin-sensitive strain
[13] = system: Mycoplasma hyorhinis; assay: MIC, broth-dilution microtiter test, Mycoplasma hyorhinis; assay type: cell-based
From the text: as §1

[14] = system: Pasteurella multocida 17E; assay: MIC, broth-dilution microtiter test, Pasteurella multocida 17E; assay type: cell-based
From the text: as §1

[15] = system: Streptococcus pneumoniae Park I; assay: microbe, parasite or virus in culture; assay type: cell-based; details: Streptococcus pneumoniae Park I, agar dilution
[16] = system: Streptococcus bovis 80; assay: MIC, broth-dilution microtiter test, Streptococcus bovis 80; assay type: cell-based
From the text: as §1

[17] = system: Staphylococcus aureus V41; assay: MIC, standard agar-dilution assay, Staphylococcus aureus V41; assay type: cell-based
[18] = system: Staphylococcus aureus X400; assay: MIC, standard agar-dilution assay, Staphylococcus aureus X400; assay type: cell-based
[19] = system: Streptococcus Group 9960; assay: MIC, standard agar-dilution assay, Streptococcus Group 9960; assay type: cell-based; details: Streptococcus Group 9960, agar dilution
[20] = system: Streptococcus pyogenes C203; assay: MIC, standard agar-dilution assay, Streptococcus pyogenes C203; assay type: cell-based
[21] = system: Mycoplasma synoviae; assay: MIC, broth-dilution microtiter test, Mycoplasma synoviae; assay type: cell-based
From the text: as §1

[22] = system: Mycoplasma hyopneumoniae; assay: MIC, broth-dilution microtiter test, Mycoplasma hyopneumoniae; assay type: cell-based; details: Mycoplasma hyopneumoniae; broth-dilution microtiter
From the text: as §1

[23] = Staphylococcus epidermidis EPI1, agar dilution
[24] = Staphylococcus aureus X1.1, agar dilution
[25] = Staphylococcus epidermidis EPI2, agar dilution
[26] = Staphylococcus aureus S13E, agar dilution
[27] = Mycoplasma gallisepticum, broth-dilution microtiter
[28] = Mycoplasma hyorhinis, broth-dilution microtiter
[29] = Pasteurella multocida 17E, bovine isolate, broth-dilution microtiter
[30] = Streptococcus bovis 80, broth-dilution microtiter
[31] = Staphylococcus aureus V41, penicillin-resistant strain, agar dilution
[32] = Staphylococcus aureus X400, methicillin-resistant strain, agar dilution
[33] = Streptococcus pyogenes C203, agar dilution
[34] = Mycoplasma synoviae, broth-dilution microtiter

CCC1OC(=O)CC(O)C(C)C(OC2OC(C)C(O)C(N(C)C)C2O)C(CCOc2ncnc3ccccc23)CC(C)C(=O)C=CC(C)=CC1COC1OC(C)C(O)C(OC)C1OC (centres unmarked) [Compound 51, 20-DH-20-O-(Quinazolin-4-yl)desmycosin]
ED50, Oral ([1]; oral): > 50 mg/kg × 2 | ED50, Subcutaneous [1]: 5.4 mg/kg × 2 | MIC [2, 23]: 0.25 µg/mL (≈ 0.277 µM) | MIC ([3]; agar dilution): 32 µg/mL (≈ 35.5 µM) | MIC [4, 24]: 0.25 µg/mL (≈ 0.277 µM) | MIC [5, 25]: 0.12 µg/mL (≈ 0.133 µM) | MIC [6]: 12.5 µg/mL (≈ 13.9 µM) | MIC [7]: -- (Not active at 50 mcg/ml, the highest level tested) | MIC [8]: 4 µg/mL (≈ 4.43 µM) | MIC ([9]; broth-dilution microtiter): 0.78 µg/mL (≈ 0.865 µM) | MIC [10, 26]: 0.25 µg/mL (≈ 0.277 µM) | MIC [11, 27]: ≤ 0.048 µg/mL | MIC ([12]; agar dilution): 16 µg/mL (≈ 17.7 µM) | MIC [13, 28]: 12.5 µg/mL (≈ 13.9 µM) | MIC [14, 29]: 12.5 µg/mL (≈ 13.9 µM) | MIC [15]: 0.5 µg/mL (≈ 0.554 µM) | MIC [16, 30]: 0.78 µg/mL (≈ 0.865 µM) | MIC [17, 31]: 0.25 µg/mL (≈ 0.277 µM) | MIC [18, 32]: 0.5 µg/mL (≈ 0.554 µM) | MIC [19]: 4 µg/mL (≈ 4.43 µM) | MIC [20, 33]: 0.5 µg/mL (≈ 0.554 µM) | MIC [21, 34]: 0.39 µg/mL (≈ 0.432 µM)

CCC1OC(=O)CC(O)C(C)C(OC2OC(C)C(OC3CC(C)(O)C(O)C(C)O3)C(N(C)C)C2O)C(C)CC(C)C(=O)C=CC(C)=CC1COC1OC(C)C(O)C(O)C1OC (centres unmarked) [Compound 54, 20-Deformylmacrocin]
ED50 ([1]; Streptococcus pyogenes, C203, oral, read-out: ED50, Oral): 31 mg/kg | MIC ([2]; Staphylococcus epidermidis, EPI1): 2 µg/mL (≈ 2.29 µM) | MIC ([3]; read-out: MIC): > 128 µg/mL | MIC ([4]; Staphylococcus aureus, X1.1): 2 µg/mL (≈ 2.29 µM) | MIC ([5]; Staphylococcus epidermidis, EPI2): 2 µg/mL (≈ 2.29 µM) | MIC ([6]; read-out: MIC): > 50 µg/mL | MIC ([7]; read-out: MIC): > 50 µg/mL | MIC ([8]; read-out: MIC): 128 µg/mL (≈ 146 µM) | MIC [9]: 3.12 µg/mL (≈ 3.57 µM) | MIC ([10]; Staphylococcus aureus, S13E): 2 µg/mL (≈ 2.29 µM) | MIC ([11]; Mycoplasmoides gallisepticum): 0.78 µg/mL (≈ 0.892 µM) | MIC ([12]; read-out: MIC): > 128 µg/mL | MIC ([13]; Mycoplasma): 25 µg/mL (≈ 28.6 µM) | MIC ([14]; Pasteurella multocida, 17E): > 50 µg/mL | MIC ([15]; read-out: MIC): 64 µg/mL (≈ 73.2 µM) | MIC ([16]; Streptococcus equinus, 80): 6.25 µg/mL (≈ 7.15 µM) | MIC ([17]; Staphylococcus aureus, V41): 1 µg/mL (≈ 1.14 µM) | MIC ([18]; Staphylococcus aureus, X400): 2 µg/mL (≈ 2.29 µM) | MIC ([19]; GROUP9960, read-out: MIC): 28 µg/mL (≈ 32 µM) | MIC ([20]; Streptococcus pyogenes, C203): 2 µg/mL (≈ 2.29 µM) | MIC ([21]; Mycoplasmopsis synoviae): 1.56 µg/mL (≈ 1.78 µM)

CCC(=O)OC1C(OC2C(CCN3C(=O)c4ccccc4C3=O)CC(C)C(=O)C=CC(C)=CC(COC3OC(C)C(O)C(OC)C3OC)C(CC)OC(=O)CC(O)C2C)OC(C)C(O)C1N(C)C (centres unmarked) [Compound 65, 20-DH-DO-20-N-Phthalimido-2'-O-propionyldesmycosin]
ED50, Oral ([1]; oral): 20 mg/kg × 2 | ED50, Subcutaneous [1]: 1.7 mg/kg × 2 | MIC [2, 23]: 0.25 µg/mL (≈ 0.261 µM) | MIC ([3]; agar dilution): 32 µg/mL (≈ 33.4 µM) | MIC [4, 24]: 0.5 µg/mL (≈ 0.521 µM) | MIC [6]: 12.5 µg/mL (≈ 13 µM) | MIC [7]: 25 µg/mL (≈ 26.1 µM) | MIC [22]: 12.5 µg/mL (≈ 13 µM) | MIC [8]: 8 µg/mL (≈ 8.34 µM) | MIC ([9]; broth-dilution microtiter): 1.56 µg/mL (≈ 1.63 µM) | MIC [10, 26]: 0.5 µg/mL (≈ 0.521 µM) | MIC [11, 27]: < 0.05 µg/mL | MIC ([12]; agar dilution): 64 µg/mL (≈ 66.7 µM) | MIC [13, 28]: -- (Not active at 50 mcg/ml, the highest level tested) | MIC [14, 29]: 25 µg/mL (≈ 26.1 µM) | MIC [15]: 1 µg/mL (≈ 1.04 µM) | MIC [16, 30]: 6.25 µg/mL (≈ 6.52 µM) | MIC [17, 31]: 0.5 µg/mL (≈ 0.521 µM) | MIC [18, 32]: 0.5 µg/mL (≈ 0.521 µM) | MIC [19]: 8 µg/mL (≈ 8.34 µM) | MIC [20, 33]: 0.5 µg/mL (≈ 0.521 µM)

CCC1OC(=O)CC(O)C(C)C(OC2OC(C)CC(N(C)C)C2O)C(CCOc2ccccc2)CC(C)C(=O)C=CC(C)=CC1COC1OC(C)C(O)C(OC)C1OC (centres unmarked) [Compound 70, 20-DH-20-O-Phenyl-4'-deoxydesmycosin]
ED50, Oral ([1]; oral): 7 mg/kg × 2 | ED50, Subcutaneous [1]: 3.1 mg/kg × 2 | MIC [2, 23]: 0.25 µg/mL (≈ 0.3 µM) | MIC ([3]; agar dilution): 4 µg/mL (≈ 4.8 µM) | MIC [4, 24]: 0.25 µg/mL (≈ 0.3 µM) | MIC [5, 25]: 0.12 µg/mL (≈ 0.144 µM) | MIC [6]: 12.5 µg/mL (≈ 15 µM) | MIC [7]: 50 µg/mL (≈ 59.9 µM) | MIC [8]: 2 µg/mL (≈ 2.4 µM) | MIC ([9]; broth-dilution microtiter): 0.78 µg/mL (≈ 0.935 µM) | MIC [10, 26]: 0.25 µg/mL (≈ 0.3 µM) | MIC [11, 27]: 0.39 µg/mL (≈ 0.468 µM) | MIC ([12]; agar dilution): 4 µg/mL (≈ 4.8 µM) | MIC [13, 28]: 12.5 µg/mL (≈ 15 µM) | MIC [14, 29]: 12.5 µg/mL (≈ 15 µM) | MIC [15]: 0.5 µg/mL (≈ 0.599 µM) | MIC [16, 30]: 6.25 µg/mL (≈ 7.49 µM) | MIC [17, 31]: 0.25 µg/mL (≈ 0.3 µM) | MIC [18, 32]: 0.25 µg/mL (≈ 0.3 µM) | MIC [19]: 4 µg/mL (≈ 4.8 µM) | MIC [20, 33]: 0.5 µg/mL (≈ 0.599 µM) | MIC [21, 34]: 0.78 µg/mL (≈ 0.935 µM)
